Test results taken from patent US12077503B2, “Substituted cyclic amides and their use as herbicides” (FMC CORPORATION, priority 2015, dated 2024).

Tests used:
Format in all cases: in vivo
[1] = system: ivy-leaved morning glory (Ipomoea hederacea); assay: Test G Pre-Emergence Protocol; settings: Ipomoea, pre-emergence, 312 h, evaluated after 13 days; for pest or weed control at 62.5 g/ha: 62.5 g ai/ha, 100=total damage to plant, 0=no damage to plant, read-out: plant damage rating, Morningglory, Ivy-leaved; for pest or weed control at 250 g/ha: 250 g ai/ha, read-out: Morningglory, Ivy-leaved damage rating (100=total damage to plant; 0=no damage to plant); for pest or weed control at 15.625 g/ha: 15.625 g ai/ha, read-out: Morning-glory, Ivy-leaved damage rating (100=total damage to plant; 0=no damage to plant)
Procedure, shortened: (§1)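 Pre-emergence spray, 15.625/62.5/250 g/ha, vehicle acetone:water 50:50 + 0.5% Tween 20, applied 1 d after sowing. Glasshouse 24/16° C, 14 h light, 65% RH, watered twice daily. Visual damage rating at 13 d, 0–100 scale.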

[2] = system: barnyardgrass (Echinochloa crus-galli); assay: Test G Pre-Emergence Protocol; settings: Echinochloa crus-galli, pre-emergence, 312 h, evaluated after 13 days; for pest or weed control at 15.625 g/ha: 15.625 g ai/ha, read-out: Barnyard grass damage rating (100=total damage to plant; 0=no damage to plant); for pest or weed control at 62.5 g/ha: 62.5 g ai/ha, 100=total damage to plant, 0=no damage to plant, read-out: plant damage rating, Barnyardgrass; for pest or weed control at 250 g/ha: 250 g ai/ha, read-out: Barnyardgrass damage rating (100=total damage to plant; 0=no damage to plant)
Procedure, shortened: as §1

[3] = system: velvetleaf (Abutilon theophrasti); assay: Test G Pre-Emergence Protocol; settings: Abutilon theophrasti, pre-emergence, 312 h, evaluated after 13 days; for pest or weed control at 15.625 g/ha: 15.625 g ai/ha; for pest or weed control at 15.625 g/ha / pest or weed control at 250 g/ha: read-out: Velvetleaf damage rating (100=total damage to plant; 0=no damage to plant); for pest or weed control at 62.5 g/ha: 62.5 g ai/ha, 100=total damage to plant, 0=no damage to plant, read-out: plant damage rating, Velvetleaf; for pest or weed control at 250 g/ha: 250 g ai/ha
Procedure, shortened: as §1

[4] = system: giant foxtail (Setaria faberi); assay: Test G Pre-Emergence Protocol; settings: Setaria faberi, pre-emergence, 312 h, evaluated after 13 days; for pest or weed control at 15.625 g/ha: 15.625 g ai/ha; for pest or weed control at 15.625 g/ha / pest or weed control at 250 g/ha: read-out: Foxtail, Giant damage rating (100=total damage to plant; 0=no damage to plant); for pest or weed control at 62.5 g/ha: 62.5 g ai/ha, 100=total damage to plant, 0=no damage to plant, read-out: plant damage rating, Foxtail, Giant; for pest or weed control at 250 g/ha: 250 g ai/ha
Procedure, shortened: as §1

corn (Zea mays) [5] = assay: Test G Pre-Emergence Protocol; settings: Zea mays, pre-emergence, 312 h, evaluated after 13 days; for plant injury at 15.625 g/ha: 15.625 g ai/ha; for plant injury at 15.625 g/ha / plant injury at 250 g/ha: read-out: Corn damage rating (100=total damage to plant; 0=no damage to plant); for plant injury at 62.5 g/ha: 62.5 g ai/ha, 100=total damage to plant, 0=no damage to plant, read-out: plant damage rating, Corn; for plant injury at 250 g/ha: 250 g ai/ha
Procedure, shortened: as §1

[6] = system: redroot pigweed (Amaranthus retroflexus); assay: Test G Pre-Emergence Protocol; settings: Amaranthus retroflexus, pre-emergence, 312 h, evaluated after 13 days; for pest or weed control at 15.625 g/ha: 15.625 g ai/ha; for pest or weed control at 15.625 g/ha / pest or weed control at 250 g/ha: read-out: Pigweed, Redroot damage rating (100=total damage to plant; 0=no damage to plant); for pest or weed control at 62.5 g/ha: 62.5 g ai/ha, 100=total damage to plant, 0=no damage to plant, read-out: plant damage rating, Pigweed, Redroot; for pest or weed control at 250 g/ha: 250 g ai/ha
Procedure, shortened: as §1

[7] = system: ivy-leaved morning glory (Ipomoea hederacea); assay: Test G Post-Emergence Protocol; settings: Ipomoea, post-emergence, 312 h; for pest or weed control at 15.625 g/ha: 15.625 g ai/ha, evaluated after 13 days (100=total damage to plant; 0=no damage to plant), read-out: Morningglory, Ivy-leaved damage rating; for pest or weed control at 62.5 g/ha: 62.5 g ai/ha, read-out: Morningglory, Ivy-leaved damage rating (100=total damage to plant; 0=no damage to plant); for pest or weed control at 62.5 g/ha / pest or weed control at 250 g/ha: evaluated after 13 days; for pest or weed control at 250 g/ha: 250 g ai/ha, read-out: damage to plant, Morningglory, Ivy-leaved (100=total damage to plant; 0=no damage to plant)
Procedure, shortened: (§2)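 Eight days post-sowing, plants received a spray of test compound (acetone/water 50:50, 0.5% Tween 20) at 15.625, 62.5 or 250 g/ha. Glasshouse regime thereafter: 24/16 °C, 14 h light, 65% humidity. Assessment after 13 days on a 0–100 damage scale.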

[8] = system: barnyardgrass (Echinochloa crus-galli); assay: Test G Post-Emergence Protocol; settings: Echinochloa crus-galli, post-emergence, 312 h; for pest or weed control at 15.625 g/ha: 15.625 g ai/ha, evaluated after 13 days (100=total damage to plant; 0=no damage to plant), read-out: Barnyardgrass damage rating; for pest or weed control at 62.5 g/ha: 62.5 g ai/ha, read-out: Barnyardgrass damage rating (100=total damage to plant; 0=no damage to plant); for pest or weed control at 62.5 g/ha / pest or weed control at 250 g/ha: evaluated after 13 days; for pest or weed control at 250 g/ha: 250 g ai/ha, read-out: damage to plant, Barnyardgrass (100=total damage to plant; 0=no damage to plant)
Procedure, shortened: as §2

[9] = system: velvetleaf (Abutilon theophrasti); assay: Test G Post-Emergence Protocol; settings: Abutilon theophrasti, post-emergence, 312 h; for pest or weed control at 15.625 g/ha: 15.625 g ai/ha, evaluated after 13 days (100=total damage to plant; 0=no damage to plant), read-out: Velvetleaf damage rating; for pest or weed control at 62.5 g/ha: 62.5 g ai/ha, read-out: Velvetleaf damage rating (100=total damage to plant; 0=no damage to plant); for pest or weed control at 62.5 g/ha / pest or weed control at 250 g/ha: evaluated after 13 days; for pest or weed control at 250 g/ha: 250 g ai/ha, read-out: damage to plant, Velvetleaf (100=total damage to plant; 0=no damage to plant)
Procedure, shortened: as §2

[10] = system: giant foxtail (Setaria faberi); assay: Test G Post-Emergence Protocol; settings: Setaria faberi, post-emergence, 312 h; for pest or weed control at 15.625 g/ha: 15.625 g ai/ha, evaluated after 13 days (100=total damage to plant; 0=no damage to plant), read-out: Foxtail, Giant damage rating; for pest or weed control at 62.5 g/ha: 62.5 g ai/ha, read-out: Foxtail, Giant damage rating (100=total damage to plant; 0=no damage to plant); for pest or weed control at 62.5 g/ha / pest or weed control at 250 g/ha: evaluated after 13 days; for pest or weed control at 250 g/ha: 250 g ai/ha, read-out: damage to plant, Foxtail, Giant (100=total damage to plant; 0=no damage to plant)
Procedure, shortened: as §2

corn (Zea mays) [11] = assay: Test G Post-Emergence Protocol; settings: Zea mays, post-emergence, 312 h; for plant injury at 15.625 g/ha: 15.625 g ai/ha, evaluated after 13 days (100=total damage to plant; 0=no damage to plant), read-out: Corn damage rating; for plant injury at 62.5 g/ha: 62.5 g ai/ha, read-out: Corn damage rating (100=total damage to plant; 0=no damage to plant); for plant injury at 62.5 g/ha / plant injury at 250 g/ha: evaluated after 13 days; for plant injury at 250 g/ha: 250 g ai/ha, read-out: damage to plant, Corn (100=total damage to plant; 0=no damage to plant)
Procedure, shortened: as §2

[12] = system: redroot pigweed (Amaranthus retroflexus); assay: Test G Post-Emergence Protocol; settings: Amaranthus retroflexus, post-emergence, 312 h; for pest or weed control at 15.625 g/ha: 15.625 g ai/ha, evaluated after 13 days (100=total damage to plant; 0=no damage to plant), read-out: Pigweed, Redroot damage rating; for pest or weed control at 62.5 g/ha: 62.5 g ai/ha, read-out: Pigweed, Redroot damage rating (100=total damage to plant; 0=no damage to plant); for pest or weed control at 62.5 g/ha / pest or weed control at 250 g/ha: evaluated after 13 days; for pest or weed control at 250 g/ha: 250 g ai/ha, read-out: damage to plant, Pigweed, Redroot (100=total damage to plant; 0=no damage to plant)
Procedure, shortened: as §2

Structure (SMILES) | pest or weed control at 62.5 g/ha [1] | pest or weed control at 250 g/ha [1] | pest or weed control at 15.625 g/ha [2] | pest or weed control at 62.5 g/ha [2] | pest or weed control at 250 g/ha [2] | pest or weed control at 15.625 g/ha [3] | pest or weed control at 62.5 g/ha [3] | pest or weed control at 250 g/ha [3] | pest or weed control at 15.625 g/ha [4] | pest or weed control at 62.5 g/ha [4] | pest or weed control at 250 g/ha [4] | plant injury at 15.625 g/ha (corn (Zea mays) [5]) | plant injury at 62.5 g/ha (corn (Zea mays) [5]) | plant injury at 250 g/ha (corn (Zea mays) [5]) | pest or weed control at 15.625 g/ha [6] | pest or weed control at 62.5 g/ha [6] | pest or weed control at 250 g/ha [6] | pest or weed control at 15.625 g/ha [7] | pest or weed control at 62.5 g/ha [7] | pest or weed control at 250 g/ha [7] | also measured
CN1C[C@@H](c2ccc(C(F)(F)F)cc2)[C@H](C(=O)Nc2ccc(F)nc2)C1=O (racemic) [Compound 1555] | 0% | 0% | 0% | 20% | 70% | 0% | 0% | 0% | 0% | 30% | 70% | 0% | 0% | 20% | 40% | 30% | 70% | 0% | 10% | 50% | pest or weed control at 15.625 g/ha [8]: 0%; pest or weed control at 62.5 g/ha [8]: 0%; pest or weed control at 250 g/ha [8]: 40%; pest or weed control at 15.625 g/ha [9]: 0%; pest or weed control at 62.5 g/ha [9]: 0%; pest or weed control at 250 g/ha [9]: 10%; pest or weed control at 15.625 g/ha [10]: 0%; pest or weed control at 62.5 g/ha [10]: 0%; pest or weed control at 250 g/ha [10]: 50%; plant injury at 15.625 g/ha (corn (Zea mays) [11]): 0%; plant injury at 62.5 g/ha (corn (Zea mays) [11]): 10%; plant injury at 250 g/ha (corn (Zea mays) [11]): 0%; pest or weed control at 15.625 g/ha [12]: 0%; pest or weed control at 62.5 g/ha [12]: 0%; pest or weed control at 250 g/ha [12]: 20%
CN1C[C@H](c2ccc(C(F)(F)F)cc2)[C@@H](C(=O)Nc2ncccc2C#N)C1=O (racemic) [Compound 1433] | 0% | 0% | 0% | 0% | 0% | 0% | 0% | 0% | 0% | 0% | 0% | 0% | 0% | 0% | 0% | 0% | 0% | 0% | 0% | 0% | pest or weed control at 15.625 g/ha [1]: 0%; pest or weed control at 15.625 g/ha [8]: 0%; pest or weed control at 62.5 g/ha [8]: 0%; pest or weed control at 250 g/ha [8]: 0%; pest or weed control at 15.625 g/ha [9]: 0%; pest or weed control at 62.5 g/ha [9]: 0%; pest or weed control at 250 g/ha [9]: 0%; pest or weed control at 15.625 g/ha [10]: 0%; pest or weed control at 62.5 g/ha [10]: 0%; pest or weed control at 250 g/ha [10]: 0%; plant injury at 15.625 g/ha (corn (Zea mays) [11]): 0%; plant injury at 62.5 g/ha (corn (Zea mays) [11]): 0%; plant injury at 250 g/ha (corn (Zea mays) [11]): 0%; pest or weed control at 15.625 g/ha [12]: 0%; pest or weed control at 62.5 g/ha [12]: 0%; pest or weed control at 250 g/ha [12]: 0%
CN1C[C@@H](c2ccc(C(F)(F)F)cc2)[C@H](C(=O)Nc2cccc(F)c2)C1=O (racemic) [Compound 1623] | 10% | 10% | 10% | 30% | 60% | 10% | 0% | 50% | 20% | 60% | 80% | 10% | 0% | 10% | 10% | 10% | 50% | 30% | 30% | 60% | pest or weed control at 15.625 g/ha [1]: 10%; pest or weed control at 15.625 g/ha [8]: 10%; pest or weed control at 62.5 g/ha [8]: 70%; pest or weed control at 250 g/ha [8]: 80%; pest or weed control at 15.625 g/ha [9]: 0%; pest or weed control at 62.5 g/ha [9]: 0%; pest or weed control at 250 g/ha [9]: 20%; pest or weed control at 15.625 g/ha [10]: 30%; pest or weed control at 62.5 g/ha [10]: 70%; pest or weed control at 250 g/ha [10]: 80%; plant injury at 15.625 g/ha (corn (Zea mays) [11]): 0%; plant injury at 62.5 g/ha (corn (Zea mays) [11]): 0%; plant injury at 250 g/ha (corn (Zea mays) [11]): 30%; pest or weed control at 15.625 g/ha [12]: 10%; pest or weed control at 62.5 g/ha [12]: 20%; pest or weed control at 250 g/ha [12]: 60%
